Source: patent publication US20030040510A1, “Selective estrogen receptor modulators in combination with estrogens” (Endorecherche, Inc., priority 2000, published 2003)
“Also recorded” adds a separate entry of the source. Marks after values point to notes of the source that are not given here.

Tests used:
[1] = tested on: bone metabolism in the rat; details: cited from earlier work
[2] = tested on: OVX rats having established osteopenia; assay: Treatment of OVX rats having established osteopenia, 26 weeks (Example 5B): BMD, total body fat; type: in vivo, Sprague-Dawley rats; details: treatment started 10 weeks after OVX, 26 weeks daily
Procedure: (§1) Height to nine month-old female Sprague-Dawley rats (Crl:CD(SD)Br) (Charles River Laboratory, St-Constant, Canada) were used in this experiment. The animals were acclimatized to the environmental conditions (temperature: 22±3° C.; humidity: 50±20%; 12-h light-12-h dark cycles, lights on at 07:15 h) for at least 1 week prior to the ovariectomy. Animals were bilaterally ovariectomized (OVX) under isoflurane anesthesia. Twenty animals were kept intact as control. The animals were housed individually and were allowed free access to tap water and a pelleted certified rodent feed (Lab Diet 5002, Ralston Purina, St-Louis, Mo.). Experiments were conducted in an animal facility approved by the Canadian Council on Animal Care (CCAC) and the Association for Assessment and Accreditation of Laboratory Animal Care (AAALAC) in accordance with the CCAC Guide for Care and Use of Experimental Animals.
Treatments were initiated 10 weeks after the ovariectomy and were performed once daily during 26 weeks. Animals not receiving a test article were treated with the appropriate vehicle alone during the same period.
Prior to the OVX, prior to the first day treatment (10 weeks after OVX) and after 26 weeks of treatment, individual rats under Isoflurane anesthesia had their whole body skeleton, lumbar spine and right femur scanned using dual energy x-ray absorptiometry (DEXA; QDR 4500A, Hologic, Waltham, Mass.) and a Regional High Resolution Scan software. The bone mineral density (BMD) of the lumbar spine (vertebrae L2 to L4), femur and the total body composition (fat percentage) were determined.

[3] = tested on: ovariectomized female rats; assay: Prevention of bone loss, body fat, serum cholesterol and ALP, 3-month treatment of OVX rats (Example 5A, experiment 1); type: in vivo, Sprague-Dawley rats; details: OVX rats, 3 months
Procedure: as §1, with “Ten” for “Height”, “twelve week-old” for “nine month-old”, “Canada) weighing approximately 220-270 g at start of treatment” for “Canada)”, “used.” for “used in this experiment.”, “before starting” for “prior to”, “experiments.” for “ovariectomy. Animals were bilaterally ovariectomized (OVX) under isoflurane anesthesia. Twenty animals were kept intact as control.”
On day 1 of the study, the animals of the appropriate groups were bilaterally ovariectomized (OVX) under isoflurane anesthesia. […] Treatments were initiated on day 2 of the study and were performed once daily during 3 months.
(§2) After 3 months (experiment 1) or 26 weeks (experiment 2) of treatment, individual rats under Isoflurane anesthesia had their whole body skeleton and lumbar spine scanned using dual energy x-ray absorptiometry (DEXA; QDR 4500A, Hologic, Waltham, Mass.) and a Regional High Resolution Scan software. The bone mineral density (BMD) of the lumbar spine (vertebrae L2 to L4) and the total body composition (fat percentage) were determined.
(§3) After 3 months (experiment 1) or 26 weeks (experiment 2) of treatment, blood samples were collected at the jugular vein from overnight fasted animals (under Isoflurane anesthesia). Samples were processed for serum preparation and frozen at −80° C. until assay. Serum cholesterol levels and alkaline phospatase activity (ALP) were determined using the Boehringer Mannheim Diagnostic Hitachi 911 Analyzer (Boehringer Mannheim Diagnostic Laboratory Systems).

[4] = tested on: ZR-75-1 breast tumor xenografts; assay: Growth of human ZR-75-1 breast tumor xenografts in OVX nude mice supplemented with estrone (DHEA, EM-800; Example 1); details: OVX + E1; for Inhibition of E1-stimulated ZR-75-1 tumor size / Inhibition of terminal tumor weight / Average tumor weight: 9.5 months
[5] = tested on: bone metabolism in the rat; assay: Biochemical parameters of bone metabolism (urine, serum) after DHEA and/or EM-800; type: in vivo; details: DHEA 10 mg, EM-800 75 μg
Source text: Data are expressed as the means±SEM.**: P<0.01 experimental versus respective control.
It is particularly important to indicate that the combination of DHEA and EM-800 exerted unexpected beneficial effects on important biochemical parameters of bone metabolism. […] Moreover, no effect of DHEA could be detected on daily urinary calcium or phosphorus excretion (Luo et al., Endocrinology 138: 4435-4444, 1997). EM-800, decreased the urinary hydroxyproline/creatinine ratio by 48% while, similarly to DHEA, no effect of EM-800 was seen on urinary calcium or phosphorus excretion. EM-800, moreover, had no effect on serum alkaline phosphatase activity, a marker of bone formation while DHEA increased the value of the parameter by about 75% (Luo et al., Endocrinology 138: 4435-4444, 1997).

[6] = tested on: uterus and vagina of ovariectomized nude mice; assay: Uterine, vaginal and body weight in the xenograft-bearing OVX nude mice (Example 1)
[7] = tested on: ovariectomized female rats; assay: Prevention of bone loss, body fat, serum cholesterol and ALP, 26-week treatment of OVX rats (Example 5A, experiment 2); type: in vivo, Sprague-Dawley rats; details: 26 weeks
Procedure: as §1, with “Ten” for “Height”, “twelve week-old” for “nine month-old”, “Canada) weighing approximately 220-270 g at start of treatment” for “Canada)”, “used.” for “used in this experiment.”, “before starting” for “prior to”, “experiments.” for “ovariectomy. Animals were bilaterally ovariectomized (OVX) under isoflurane anesthesia. Twenty animals were kept intact as control.”
On day 1 of the study, the animals of the appropriate groups were bilaterally OVX under isoflurane anesthesia. Tested compounds were administered as suspension in 0.4% methylcellulose by oral gavage. Treatments were initiated on day 2 of the study and were performed once daily during 26 weeks. In both experiments, animals not receiving a test article were treated with the appropriate vehicle alone during the same period.
as §2, §3

MCF-7 cells = assay: Proliferation of human breast cancer MCF-7 cells (DNA content); type: cell-based; details: MCF-7, Experiment 1
Procedure: The MCF-7 human breast adenocarcinoma cell line was derived from the pleural effusion of a patient. MCF-7 cells were used between passages 148 and 165 and subcultured weekly
Cells in their late logarithmic growth phase were harvested with 0.1% pancreatin (Sigma) and resuspended in the appropriate medium containing 50 ng bovine insulin/ml and 5% (v/v) FBS treated twice with dextran-coated charcoal to remove endogenous steroids. Cells were plated in 24-well Falcon plastic culture plates (2 cm^2/well) at the indicated density and allowed to adhere to the surface of the plates for 72 h. Thereafter, medium was replaced with fresh medium containing the indicated concentrations of compounds diluted from 1000×stock solutions in 99% redistilled ethanol in the presence or absence of E2. Control cells received only the ethanolic vehicle (0.1% EtOH,v/v). Cells were incubated for the specified time intervals with medium changes at 2-or 3-day intervals. Cell number was determined by measurement of DNA content.
Dose-response curves as well IC50 values were calculated using a weighted iterative nonlinear least-squares regression. All results are expressed as means±SEM.

[8] = tested on: uterus and vagina of ovariectomized mice; assay: Uterine and vaginal weight in ovariectomized mice treated or not with estrone (9 days oral); type: in vivo, BALB/c mice; details: for Inhibition of estrone-stimulated uterine weight / Inhibition of estrone-stimulated vaginal weight: 9 days, OVX mice + E1
Procedure: (St-Constant, Quebec, Canada) and housed 5 per cage in a temperature (23±1° C.)—and light (12 h light/day, lights on at 7:15)—controlled environment. The mice were fed rodent chow and tap water ad libitum. […] Ten mice were kept intact as controls. […] Compounds were dissolved in ethanol (4% final concentration) and administered in 0.4% methylcellulose. Mice in the intact and OVX control groups received the vehicle alone (4% ETOH-0.4% methylcellulose) during the 9-day period. The animals were killed by exsanguination at the abdominal aorta on the 11th morning following ovariectomy.

[9] = E2 1 mg/kg, EM-652.HCl 2.5 mg/kg, DHEA 80 mg/kg
[10] = DHEA 0.3 mg (alone or with EM-800 15 μg)
[11] = DHEA 1.0 mg (alone or with EM-800 15 μg)
[12] = DHEA 3.0 mg (alone or with EM-800 15 μg)
[13] = OVX rats, Premarin 0.25 mg/kg, SERMs 2.5 mg/kg oral
[14] = OVX + ERA-923 3 μg (no estrone)
[15] = OVX + ERA-923 30 μg (no estrone)
[16] = alone, absence of estrone, both doses used

C[C@]12CC[C@H](O)CC1=CC[C@@H]1[C@@H]2CC[C@]2(C)C(=O)CC[C@@H]12 [DHEA, dehydroepiandrosterone, reference compound]
Decrease of urinary hydroxyproline/creatinine ratio [1]: did not affect; also recorded: did not show any effect
Effect on daily urinary calcium or phosphorus excretion [1]: no effect
Increase of serum alkaline phosphatase activity [1]: about 75%
Femoral BMD [2]: completely prevented the further decrease
Lumbar spine BMD [2]: completely prevented the further decrease
Total body fat [2]: prevented the 17% increase
Serum ALP [3]: 224±18 IU/L
Serum cholesterol [3]: 1.59 ± 0.10 mmol/L
Total fat [3]: 17.3 ± 1.5 %
Lumbar spine BMD [3, 9]: 0.2321 ± 0.0034 g/cm^2
Lumbar spine, Prevention of Bone Loss [3, 9]: 43%
Inhibition of E1-stimulated ZR-75-1 tumor size ([4]; DHEA 0.3 mg percutaneous): 50.4%
Inhibition of terminal tumor weight ([4]; DHEA 0.3 mg): 67%
Inhibition of E1-stimulated ZR-75-1 tumor size ([4]; DHEA 1.0 mg percutaneous): 76.8%
Inhibition of terminal tumor weight ([4]; DHEA 1.0 mg): 82%
Inhibition of E1-stimulated ZR-75-1 tumor size ([4]; DHEA 3.0 mg percutaneous): 80.0%
Inhibition of terminal tumor weight ([4]; DHEA 3.0 mg): 85%
Category of response: Partial [4, 10]: 0 (0) Number and (%)
Average tumor weight [4, 10]: 0.37 ± 0.12 g
Category of response: Partial [4, 11]: 0 (0) Number and (%)
Average tumor weight [4, 11]: 0.20 ± 0.06 g
Category of response: Partial [4, 12]: 0 (0) Number and (%)
Average tumor weight [4, 12]: 0.17 ± 0.06 g
Serum tALP [5]: 198.38 ± 30.76* IU/L
Urine HP/Cr [5]: 14.02 ± 1.59 μmol/mmol
Urine calcium [5]: 25.87 ± 3.54 μmol/24h/100g
Urine phosphorus [5]: 151.41 ± 14.57 μmol/24h/100g
Effect on body weight adjusted for tumor weight ([6]; 9.5 months): No significant effect
Effect on estrone-stimulated vaginal weight ([6]; addition of DHEA to estrone): had no significant effect
Inhibition of the stimulatory effect of estrone on uterine weight ([6]; highest dose of DHEA used): 26%

Cc1c(-c2ccc(O)cc2)n(Cc2ccc(OCCN3CCCCC3)cc2)c2ccc(O)cc12 [ERA-923]
Reversal of the fat increase induced by estrogen deficiency ([7]; OVX rats): 75%
Serum ALP ([7]; OVX rats): 85 ± 6 IU
Serum cholesterol ([7]; OVX rats): 1.15 ± 0.05 mmol/L
Total fat ([7]; OVX rats): 28.0 ± 1.8 %
Lumbar spine BMD [7, 13]: 0.2252 ± 0.0058 g/cm^2
Lumbar spine, Prevention of Bone Loss [7, 13]: 49%
OVX-induced increase on serum cholesterol levels ([7]; alone or in combination with Premarin): completely prevented
IC50 (MCF-7 cells; Homo sapiens, MCF7, read-out: Inhibition of 1nM E2 stimulation of DNA by tested compounds IC50): 3.68 nM
Maximal stimulation of DNA by tested compounds (MCF-7 cells): N.S.
Inhibition of estrone-stimulated uterine weight ([8]; 1 μg daily oral): 12%
Inhibition of estrone-stimulated uterine weight ([8]; 3 μg daily oral): 47%
Inhibition of estrone-stimulated vaginal weight ([8]; 3 μg daily oral): 16%
Inhibition of estrone-stimulated uterine weight ([8]; 10 μg daily oral): 74%
Inhibition of estrone-stimulated vaginal weight ([8]; 10 μg daily oral): 56%
Inhibition of estrone-stimulated uterine weight ([8]; 30 μg daily oral): 94%
Inhibition of estrone-stimulated vaginal weight ([8]; 30 μg daily oral): 93%
Uterine weight ([8]; OVX + E1 + ERA-923 1 μg): 105.5 ± 6.1 mg
Vaginal weight ([8]; OVX + E1 + ERA-923 1 μg): 54.2 ± 3.0 mg
Uterine weight ([8]; OVX + E1 + ERA-923 3 μg): 69.7 ± 4.4 mg
Vaginal weight ([8]; OVX + E1 + ERA-923 3 μg): 47.2 ± 1.6 mg
Uterine weight ([8]; OVX + E1 + ERA-923 10 μg): 42.1 ± 2.7 mg
Vaginal weight ([8]; OVX + E1 + ERA-923 10 μg): 31.1 ± 2.3 mg
Uterine weight ([8]; OVX + E1 + ERA-923 30 μg): 21.7 ± 1.7 mg
Vaginal weight ([8]; OVX + E1 + ERA-923 30 μg): 16.7 ± 1.8 mg
Uterine weight [8, 14]: 18.3 ± 1.2 mg
Vaginal weight [8, 14]: 14.1 ± 1.2 mg
Uterine weight [8, 15]: 17.7 ± 1.6 mg
Vaginal weight [8, 15]: 15.3 ± 2.0 mg
Stimulatory effect on uterine weight [8, 16]: no significant stimulatory effect
Stimulatory effect on vaginal weight [8, 16]: no significant stimulatory effect
